Results from PMC8217266 (Clinical Pharmacology and Therapeutics, 2021).

Experiments:
[1] = target: T1, human OATP1B1 (Homo sapiens, UniProt Q9Y6L6); conditions: for potency difference of the inhibitor for [3H]-EG vs [3H]-ES as OATP1B1 probes: inhibits EG at one-tenth (or lower) the concentration that inhibits ES
T1 sequence (Q9Y6L6 1-691): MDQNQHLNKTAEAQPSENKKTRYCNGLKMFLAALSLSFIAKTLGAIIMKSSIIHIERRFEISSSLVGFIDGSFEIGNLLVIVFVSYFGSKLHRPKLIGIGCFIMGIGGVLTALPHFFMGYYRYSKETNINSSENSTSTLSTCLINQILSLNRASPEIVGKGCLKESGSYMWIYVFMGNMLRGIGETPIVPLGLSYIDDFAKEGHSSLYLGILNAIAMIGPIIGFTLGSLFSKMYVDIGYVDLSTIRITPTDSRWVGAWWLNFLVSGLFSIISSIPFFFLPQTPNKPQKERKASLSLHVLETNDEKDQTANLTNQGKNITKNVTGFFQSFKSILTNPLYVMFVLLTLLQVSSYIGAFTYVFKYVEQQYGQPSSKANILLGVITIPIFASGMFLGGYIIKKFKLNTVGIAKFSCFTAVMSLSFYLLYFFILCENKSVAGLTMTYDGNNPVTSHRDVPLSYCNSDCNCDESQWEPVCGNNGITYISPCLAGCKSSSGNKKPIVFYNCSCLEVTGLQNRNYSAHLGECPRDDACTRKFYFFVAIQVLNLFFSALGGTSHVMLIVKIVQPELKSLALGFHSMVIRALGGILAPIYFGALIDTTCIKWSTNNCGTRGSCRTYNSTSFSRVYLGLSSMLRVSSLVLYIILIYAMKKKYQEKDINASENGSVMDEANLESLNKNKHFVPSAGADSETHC

[2] = target: T2, human OATP2B1 (Homo sapiens, UniProt O94956); test: cell-based; conditions: IC50 OATP2B1, experimental, mean ± SD; stable cells; substrate ES
T2 sequence (O94956 1-709): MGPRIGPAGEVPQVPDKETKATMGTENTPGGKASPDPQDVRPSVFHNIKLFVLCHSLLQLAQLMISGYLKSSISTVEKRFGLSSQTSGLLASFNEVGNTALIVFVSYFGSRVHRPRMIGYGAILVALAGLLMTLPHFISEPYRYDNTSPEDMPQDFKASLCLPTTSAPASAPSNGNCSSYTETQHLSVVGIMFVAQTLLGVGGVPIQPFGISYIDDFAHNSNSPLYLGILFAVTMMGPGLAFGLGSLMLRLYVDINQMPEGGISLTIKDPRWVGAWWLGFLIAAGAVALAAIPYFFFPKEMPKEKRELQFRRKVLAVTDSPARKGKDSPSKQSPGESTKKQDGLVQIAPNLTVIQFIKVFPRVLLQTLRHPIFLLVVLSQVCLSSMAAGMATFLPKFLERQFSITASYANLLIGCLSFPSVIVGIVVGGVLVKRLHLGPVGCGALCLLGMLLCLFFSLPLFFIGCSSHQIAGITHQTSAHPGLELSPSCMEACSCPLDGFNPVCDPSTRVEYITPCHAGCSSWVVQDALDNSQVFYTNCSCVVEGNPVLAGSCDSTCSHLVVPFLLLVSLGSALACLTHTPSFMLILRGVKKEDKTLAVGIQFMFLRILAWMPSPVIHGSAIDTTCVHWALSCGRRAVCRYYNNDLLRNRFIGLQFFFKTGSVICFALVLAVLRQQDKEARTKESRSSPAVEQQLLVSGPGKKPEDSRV

[3] = test system: transporters at major organ sites; test: Prediction of transporter-mediated inhibition / DDI potential; design: species or system human; conditions: of 11 transporters; FDA criteria
[4] = target: P-gp (Homo sapiens, UniProt P08183); test: biochemical
Sequence of P-gp (P08183 whole entry): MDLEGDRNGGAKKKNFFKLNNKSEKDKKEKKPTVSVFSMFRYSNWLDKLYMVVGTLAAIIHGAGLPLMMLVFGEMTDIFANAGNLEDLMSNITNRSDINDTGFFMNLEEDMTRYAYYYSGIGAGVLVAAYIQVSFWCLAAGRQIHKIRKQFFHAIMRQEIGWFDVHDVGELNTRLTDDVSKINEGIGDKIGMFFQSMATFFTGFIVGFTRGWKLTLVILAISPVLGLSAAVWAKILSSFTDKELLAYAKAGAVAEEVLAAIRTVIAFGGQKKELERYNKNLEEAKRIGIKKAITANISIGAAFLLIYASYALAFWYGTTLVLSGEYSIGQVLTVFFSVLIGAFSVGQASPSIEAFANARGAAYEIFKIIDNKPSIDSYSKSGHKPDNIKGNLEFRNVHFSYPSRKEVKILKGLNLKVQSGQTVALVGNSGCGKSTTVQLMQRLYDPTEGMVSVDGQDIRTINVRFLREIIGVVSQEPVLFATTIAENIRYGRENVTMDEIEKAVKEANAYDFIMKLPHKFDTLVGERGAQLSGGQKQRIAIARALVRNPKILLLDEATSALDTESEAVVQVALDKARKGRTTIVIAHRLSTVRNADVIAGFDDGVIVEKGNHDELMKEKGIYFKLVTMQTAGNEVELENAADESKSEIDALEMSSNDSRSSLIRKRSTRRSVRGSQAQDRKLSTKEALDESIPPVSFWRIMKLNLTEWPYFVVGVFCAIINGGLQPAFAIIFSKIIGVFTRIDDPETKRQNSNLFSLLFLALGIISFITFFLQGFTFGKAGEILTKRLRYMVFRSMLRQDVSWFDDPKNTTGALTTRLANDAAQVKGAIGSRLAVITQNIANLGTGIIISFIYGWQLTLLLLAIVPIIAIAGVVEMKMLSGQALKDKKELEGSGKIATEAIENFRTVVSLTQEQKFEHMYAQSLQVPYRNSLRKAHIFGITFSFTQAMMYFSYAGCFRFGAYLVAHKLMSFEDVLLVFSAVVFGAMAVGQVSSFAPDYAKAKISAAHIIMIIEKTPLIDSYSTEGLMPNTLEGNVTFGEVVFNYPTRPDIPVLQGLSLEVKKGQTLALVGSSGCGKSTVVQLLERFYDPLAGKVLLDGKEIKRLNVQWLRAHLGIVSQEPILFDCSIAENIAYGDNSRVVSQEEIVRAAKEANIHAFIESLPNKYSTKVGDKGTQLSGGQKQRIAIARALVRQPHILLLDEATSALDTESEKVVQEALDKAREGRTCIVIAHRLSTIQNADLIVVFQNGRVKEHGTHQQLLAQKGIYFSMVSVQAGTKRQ

[5] = target: T3, human OCT1 (Homo sapiens, UniProt O15245); test: cell-based
T3 sequence (O15245 1-554): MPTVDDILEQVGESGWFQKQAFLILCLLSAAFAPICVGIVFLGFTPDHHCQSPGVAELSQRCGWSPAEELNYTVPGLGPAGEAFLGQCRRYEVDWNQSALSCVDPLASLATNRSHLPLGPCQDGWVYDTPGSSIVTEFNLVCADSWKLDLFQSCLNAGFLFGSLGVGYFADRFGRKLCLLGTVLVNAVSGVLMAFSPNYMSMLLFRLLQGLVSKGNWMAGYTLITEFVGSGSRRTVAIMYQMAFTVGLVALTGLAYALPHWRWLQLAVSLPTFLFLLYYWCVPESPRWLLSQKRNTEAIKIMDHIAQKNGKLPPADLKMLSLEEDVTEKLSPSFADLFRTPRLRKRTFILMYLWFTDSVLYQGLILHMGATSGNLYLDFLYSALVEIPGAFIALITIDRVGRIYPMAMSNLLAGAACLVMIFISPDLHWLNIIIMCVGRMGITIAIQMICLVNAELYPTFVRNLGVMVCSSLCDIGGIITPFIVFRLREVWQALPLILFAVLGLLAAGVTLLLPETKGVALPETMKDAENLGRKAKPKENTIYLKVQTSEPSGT

[6] = target: T4, human MATE1 (Homo sapiens, UniProt Q96FL8)
T4 sequence (Q96FL8 1-570): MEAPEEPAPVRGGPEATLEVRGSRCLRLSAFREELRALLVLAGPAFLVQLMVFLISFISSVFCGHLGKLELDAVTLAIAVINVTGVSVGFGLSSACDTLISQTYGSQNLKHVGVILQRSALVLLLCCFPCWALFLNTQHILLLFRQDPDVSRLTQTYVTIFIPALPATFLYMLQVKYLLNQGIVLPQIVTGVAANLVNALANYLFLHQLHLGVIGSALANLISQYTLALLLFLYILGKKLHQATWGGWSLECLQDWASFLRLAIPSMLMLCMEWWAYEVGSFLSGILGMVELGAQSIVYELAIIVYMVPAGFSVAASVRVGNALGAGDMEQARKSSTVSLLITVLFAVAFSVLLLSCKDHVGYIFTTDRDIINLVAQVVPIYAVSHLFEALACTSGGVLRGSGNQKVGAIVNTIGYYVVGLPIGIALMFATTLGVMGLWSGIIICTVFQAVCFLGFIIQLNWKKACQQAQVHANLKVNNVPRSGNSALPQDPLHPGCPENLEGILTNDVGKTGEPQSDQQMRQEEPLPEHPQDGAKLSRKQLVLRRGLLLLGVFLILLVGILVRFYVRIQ

SMILES	potency difference of the inhibitor for [3H]-EG vs [3H]-ES as OATP1B1 probes [1] [fold]	IC50 [2] [µM]	No. of transporters at major organ sites inhibited at clinical concentrations [3]	IC50 [4] [µM]	IC50 [5] [µM]	Cu,max/IC50 MATE1 [6]	Iu,in,max/IC50 OATP1B1 ([1]; human)
CC(C)CN(C[C@@H](O)[C@H](Cc1ccccc1)NC(=O)O[C@H]1CO[C@H]2OCC[C@H]21)S(=O)(=O)c1ccc(N)cc1 [Darunavir]	> 10	30.6 ± 7.7	5	16	–	–	–
CCC(CC)COC(=O)[C@H](C)N[P@](=O)(OC[C@H]1O[C@@](C#N)(c2ccc3c(N)ncnn23)[C@H](O)[C@@H]1O)Oc1ccccc1 [Remdesivir]	> 10	3.5 ± 0.4	4	14	10.1 ± 0.01	–	–
N#CC[C@H](C1CCCC1)n1cc(-c2ncnc3[nH]ccc23)cn1 [Ruxolitinib]	–	17.4 ± 8.6	1	> 100	9.7 ± 4.3	0.04	–
CCCc1nn(C)c2c(=O)[nH]c(-c3cc(S(=O)(=O)N4CCN(C)CC4)ccc3OCC)nc12 [Sildenafil]	–	39 ± 12.8	4	16	19.8 ± 6.4	0.02	–
CCOC(=O)c1c(CSc2ccccc2)n(C)c2cc(Br)c(O)c(CN(C)C)c12 [Umifenovir (Arbidol), Umifenovir]	–	3.5 ± 1.2	6	16 ± 2	1.2 ± 0.1	0.13	0.93
